Laboratory results: publication PMC6211316, “Synthesis and biological evaluation of 3-arylcoumarin derivatives as potential anti-diabetic agents” (Journal of Enzyme Inhibition and Medicinal Chemistry, 2018)

What was measured:
[1] = hydroxyl radical scavenging; conditions: mean ± SD (n = 3), read-out: OH IC50 Value
Protocol: The ability of the target compounds and vitamin C to scavenge the hydroxyl radical was evaluated with method described by Ismaili et al.[29] with slight modifications. In test tube, 1.0 ml H2O2 solution (0.03%), 1.0 ml FeSO4 solution (2 mmol.L^−1), 1.0 ml salicylic acid solution (10 mmol.L^−1) and 1.0 ml of 3-arylcoumarins and standard water solution with different concentration (0.4–2.0 mg/mL) were mixed. Finally, 1.0 ml H2O2 solution (0.03%) was added to this mixture to start the reaction. Solutions were kept at 37 °C. After 30 min, the absorbance was measured at 510 nm against the reagent blank, where the distilled water was substituted for the H2O2 solution. The percentage of OH scavenging by target compounds and vitamin C was calculated the following equation: OH scavenging effect (%)=[A0−(A1−A2)]/A0×100% where A0 is the absorbance of 1.0 ml distilled water +1.0 ml H2O2 + 1.0 ml FeSO4 + 1.0 ml salicylic acid +1.0 ml H2O2; A1 is the absorbance of 1.0 ml 3-arylcoumarins or standard +1.0 ml H2O2 + 1.0 ml FeSO4 + 1.0 ml salicylic acid +1.0 ml H2O2; A2 is the absorbance of 1.0 ml 3-arylcoumarins or standard +1.0 ml H2O2 + 1.0 ml FeSO4 + 1.0 ml absolute absolute ethanol +1.0 ml H2O2.

[2] = DPPH free radical scavenging; conditions: mean ± SD (n = 3)
Protocol: The effect of target compounds and vitamin C to scavenge the DPPH free radical was evaluated with the method described by Villano et al.[43] with slight modifications.
Two millilitres of different concentrations of the sample solution was added to 2.0 ml of DPPH solution (0.04 mg/mL), shaken and allowed to react at room temperature for 30 min. The absorbance value was measured at 517 nm with an ultraviolet-visible spectrophotometer. The blank reference cuvette contained absolute ethanol. All measurements were performed in triplicate. IC50 values were calculated. The percentage of DPPH radical scavenging rate of the target compound is calculated as follows: DPPH free radical scavenging effect (%)=[A0−(A1−A2)]/A0×100% where A0 is the absorbance of 2.0 ml DPPH solution +2.0 ml absolute ethanol; A1 is the absorbance of 2.0 ml DPPH solution +2.0 ml 3-arylcoumarins solution or standard; A2 is the absorbance of 2.0 ml 3-arylcoumarins solution or standard +2.0 ml absolute ethanol.

[3] = tested on: mice; design: method as in PMID 17360155; conditions: cited from earlier work
[4] = biological target: T1, α-Glucosidase (Saccharomyces cerevisiae, UniProt P53341); assay: biochemical; format: biochemical
T1 construct: purchased Sigma Aldrich G0660-750UN
Protocol: α-Glucosidase (G0660-750UN, Sigma Aldrich) and 4-Nitrophenyl α-D-glucopyranoside (PNPG, Macklin) were dissolved in phosphate buffer (pH 6.8, 100 mM), and the test compounds were dissolved in DMSO solution. The experiment was divided into blank group, control group, sample blank group, and sample group. The reagents were loaded in 96-well plates at the dose of the table (Table 8). The solution was bathed in 37 °C water for 10 min, and then enzyme solution was added. After reaction at 37 °C for 20 min, 70 μL Na2CO3 solution ([…]) was added to stop the reaction. All experiments were run in triplicate. […] Since PNPG can produce glucose and p-Nitrophenol (PNP) under the action of α-glucosidase, PNP has the greatest absorption at 405 nm. The absorbance was determined by the microplate reader, and the inhibition rate of α-glucosidase and the IC50 value of each sample were calculated according to the formula. Inhibition rate %={[(AC−AB)−(AS−ASB)]/(AC−AB)}×100% where AC is the absorbance of control group; AB is the absorbance of blank group; AS is the absorbance of sample group; ASB is the absorbance of sample blank group.

[5] = Oral toxicity to mice (Lorke's method); conditions: both sexes, mouse, in vivo, Kunming mice, observed 14 days
Protocol: With reference to Lorke’s method, kunming mice were used as targets to estimate the oral toxicity of each compound to mice. We select compounds 11, 17, 25, 28, and 35 at concentrations of 10, 100, and 1000 mg/kg to test their oral toxicity in the first phase, and 1600, 2900, and 5000 mg/kg at the second phase.
Experiments were performed on Kunming mice (male and female half, bw range, 25–30 g). Mice were housed in a climate and light controlled room with a 12 h light/dark cycle. Twelve hours before experiments, food was withheld, but animals had free access to drinking water. The compounds were suspended in vehicle (Tween-80, 0.2% in saline). The concentrations were adjusted to orally administrate 0.2 ml/10 g of bw. Mice were treated in two phases. In the first, intragastric doses of 10, 100 and 1000 mg/kg of bw of compounds were administered. On the second, the doses were adjusted to 1600, 2900, and 5000 mg/kg of bw of compounds. In both phases, mice were observed daily in a period of 14 days for mortality, toxic effects and/or changes in behavioural pattern. At the end of the experiments, the mice were sacrificed in a CO2 chamber.

[6] = tested on: STZ-diabetic mice; assay: Acute hypoglycemic assay in STZ-diabetic mice; format: in vivo; conditions: STZ-diabetics mice
Protocol: Type II diabetes mellitus was induced in mice by a single intraperitoneal injection of freshly prepared STZ (Sigma Aldrich) dissolved in 0.1M citrate buffer, pH 4.5, in a volume of 110 mg/kg of bw. After 7 days of STZ administration, blood glucose levels of each mouse were determined. Mice with blood glucose levels higher than 11 mM were considered diabetic and were included in the study.
STZ-induced diabetic mice and normal mice were placed in single cages with wire-net floors and deprived of food for 12 h before experimentation but allowed free access to tap water throughout. The compounds (at the doses of 10, 30, and 100 mg/kg of bw) were suspended in 0.05% Tween-80 in saline solution. Glibenclamide (10 mg/kg of bw) was suspended in the same vehicle. The target compounds were freshly prepared immediately before experimentation and administered by the intragastrical route at the doses of 10 ml/kg of bw. Control mice received only the vehicle (0.05% Tween-80 in saline solution) by the same route. Blood glucose levels were measured at 0, 1.5, 3, 5, 7, and 9 h after drugs administration.

[7] = tested on: AGEs formation; assay: In vitro inhibitory activity of AGEs formation (bovine serum albumin/glucose); format: biochemical; conditions: mean ± SD (n = 3)
Protocol: To prepare the AGEs reaction solution, 10 mg/mL of bovine serum albumin in 50 mM PBS (pH 7.4) was added to 0.2 M glucose, and 0.02% sodium azide was added to prevent bacterial growth. The reaction mixture (3.0 ml) was then mixed with various concentrations (0.5–1000 μg/mL) of the target compounds (1.0 ml) dissolved in DMSO. After incubating at 37 °C for 14 d, the fluorescence intensity of AGE was determined by a fluorospectrophotometer (PE, USA) with excitation and emission wavelengths at 350 nm and 420 nm, respectively. All experiments were run in triplicate. Aminoguanidine hydrochloride was used as a reference compound. The inhibition rate of AGEs formation and the IC50 value of each sample were calculated according to the formula. Inhibition rate %={[(AC−AB)−(AS−ASB)]/(AC−AB)}×100% where AC is the absorbance of control group(1.0 ml glucose +1.0 ml bovine serum albumin +1.0 ml sodium azide +1.0 ml DMSO); AB is the absorbance of blank group(1.0 ml PBS +1.0 ml bovine serum albumin +1.0 ml sodium azide +1.0 ml DMSO); AS is the absorbance of sample group (1.0 ml glucose +1.0 ml bovine serum albumin +1.0 ml sodium azide +1.0 ml target compound solution or Aminoguanidine hydrochloride solution); ASB is the absorbance of sample blank group (1.0 ml PBS +1.0 ml bovine serum albumin +1.0 ml sodium azide +1.0 ml target compound solution or Aminoguanidine hydrochloride solution).

[8] = tested on: STZ-induced hyperglycemic mice; design: method as in PMID 20040119; conditions: 100 mg/kg/day; cited from earlier work

T1 sequence (P53341 whole entry): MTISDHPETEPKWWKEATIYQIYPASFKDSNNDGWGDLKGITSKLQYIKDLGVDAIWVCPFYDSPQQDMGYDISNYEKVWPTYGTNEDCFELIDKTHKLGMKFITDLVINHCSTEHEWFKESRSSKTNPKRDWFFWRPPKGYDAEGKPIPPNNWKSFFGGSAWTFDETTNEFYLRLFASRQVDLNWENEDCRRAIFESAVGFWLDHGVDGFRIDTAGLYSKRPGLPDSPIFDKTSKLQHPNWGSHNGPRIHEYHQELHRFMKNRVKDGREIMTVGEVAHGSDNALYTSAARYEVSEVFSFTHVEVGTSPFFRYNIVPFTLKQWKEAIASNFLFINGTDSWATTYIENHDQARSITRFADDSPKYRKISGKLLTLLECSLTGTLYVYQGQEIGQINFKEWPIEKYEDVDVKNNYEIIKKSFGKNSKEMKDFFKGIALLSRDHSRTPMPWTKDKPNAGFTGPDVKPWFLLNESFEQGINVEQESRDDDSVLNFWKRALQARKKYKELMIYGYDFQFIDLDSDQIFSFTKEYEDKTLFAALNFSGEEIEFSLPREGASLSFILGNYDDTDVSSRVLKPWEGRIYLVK

O=C1O[C@H]([C@@H](O)CO)C(O)=C1O [Vitaminc, Vitamin C, reference compound]
IC50 [1]: 788 ± 15.7 µM | IC50 [2]: 19.6 ± 1.88 µM | IC50 ([2]; listed as Vitamin C): 34.9 ± 0.85 µM | protection against STZ-induced elevation in the plasma glucose levels [3]: only a marginal to moderate protection

O=c1oc2cc(O)cc(O)c2cc1-c1ccc(O)cc1 [Compound 28, 5,7-Dihydroxy-3-(4-hydroxyphenyl)-coumarin]
α-glucosidase inhibitory activity (in words) ([4]; in vitro): moderate to excellent inhibitory activity | IC50 ([4]; mean ± SD (n = 3), read-out: α-Glucosidase inhibitory activity IC50 Value): 1.37 ± 0.15 µM | LD50 at 14 days [5]: > 5000 mg/kg | IC50 [1]: > 1000 µM | IC50 [2]: 41.51 ± 0.18 µM | Blood glucose concentration ([6]; 10 mg/kg of bw per os, 0h): 15.3 ± 3.8 mM | % Variation of glycemia ([6]; 10 mg/kg of bw per os, 1.5h): (−3.27) % | Blood glucose concentration ([6]; 10 mg/kg of bw per os, 1.5h): 14.8 ± 5.8 mM | % Variation of glycemia ([6]; 10 mg/kg of bw per os, 3h): (−25.49) % | Blood glucose concentration ([6]; 10 mg/kg of bw per os, 3h): 11.4 ± 4.2 mM | % Variation of glycemia ([6]; 10 mg/kg of bw per os, 5h): (−41.83) % | Blood glucose concentration ([6]; 10 mg/kg of bw per os, 5h): 8.9 ± 2.6 mM | % Variation of glycemia ([6]; 10 mg/kg of bw per os, 7h): (−58.17) % | Blood glucose concentration ([6]; 10 mg/kg of bw per os, 7h): 6.4 ± 1.6 mM | % Variation of glycemia ([6]; 10 mg/kg of bw per os, 9h): (−54.25) % | Blood glucose concentration ([6]; 10 mg/kg of bw per os, 9h): 7.0 ± 2.4 mM | Blood glucose concentration ([6]; 30 mg/kg of bw per os, 0h): 18.2 ± 6.7 mM | % Variation of glycemia ([6]; 30 mg/kg of bw per os, 1.5h): (−18.13) % | Blood glucose concentration ([6]; 30 mg/kg of bw per os, 1.5h): 14.9 ± 6.6 mM | % Variation of glycemia ([6]; 30 mg/kg of bw per os, 3h): (−25.82) % | Blood glucose concentration ([6]; 30 mg/kg of bw per os, 3h): 13.5 ± 6.1 mM | % Variation of glycemia ([6]; 30 mg/kg of bw per os, 5h): (−30.22) % | Blood glucose concentration ([6]; 30 mg/kg of bw per os, 5h): 12.7 ± 6.7 mM | % Variation of glycemia ([6]; 30 mg/kg of bw per os, 7h): (−43.41) % | Blood glucose concentration ([6]; 30 mg/kg of bw per os, 7h): 10.3 ± 5.6 mM | % Variation of glycemia ([6]; 30 mg/kg of bw per os, 9h): (−59.89) % | Blood glucose concentration ([6]; 30 mg/kg of bw per os, 9h): 7.3 ± 4.5 mM | Blood glucose concentration ([6]; 100 mg/kg of bw per os, 0h): 18.2 ± 4.1 mM | % Variation of glycemia ([6]; 100 mg/kg of bw per os, 1.5h): (−4.95) % | Blood glucose concentration ([6]; 100 mg/kg of bw per os, 1.5h): 17.3 ± 6.7 mM | % Variation of glycemia ([6]; 100 mg/kg of bw per os, 3h): (−28.57) % | Blood glucose concentration ([6]; 100 mg/kg of bw per os, 3h): 13.0 ± 6.6 mM | % Variation of glycemia ([6]; 100 mg/kg of bw per os, 5h): (−39.56) % | Blood glucose concentration ([6]; 100 mg/kg of bw per os, 5h): 11.0 ± 6.4 mM | % Variation of glycemia ([6]; 100 mg/kg of bw per os, 7h): (−35.17) % | Blood glucose concentration ([6]; 100 mg/kg of bw per os, 7h): 11.8 ± 6.0 mM | % Variation of glycemia ([6]; 100 mg/kg of bw per os, 9h): (−43.96) % | Blood glucose concentration ([6]; 100 mg/kg of bw per os, 9h): 10.2 ± 4.6 mM

N=C(N)NN [AG, amino guanidine, reference compound]
IC50 [7]: 270 ± 7.19 µM | effect on STZ-induced hyperglycemic mice [8]: no significant effect

NCCS(=O)(=O)O [taurine]
protection against STZ-induced elevation in the plasma glucose levels [3]: only a marginal to moderate protection
